Test results: patent US9963448B2, “Bicyclic inhibitors of PAD4” (Padlock Therapeutics, Inc., priority 2015, dated 2018)
Structures can show the parent of a compound that is named as a salt. Where two headings read alike, the source gives them in different places.

Key:
[1] = molecular target: hPAD4 (Homo sapiens, UniProt Q9UM07); assay: hPAD4 RFMS (RapidFire mass spectrometry) PAD4 inhibition assay; format: biochemical; details: hPAD4 enzyme, RFMS readout;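 for hPAD4 RFMS pIC50: grade E means pIC50 at most 4 and F means pIC50 4.0 to 5.0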
Protocol: (§1) Compounds of the present invention were assayed as inhibitors of PAD4 using the assay protocol described below.
(§2) Compound stock solutions were stored at RT. […] Final assay conditions were as follows:
(§3) Total incubation time: 65 mins at 37° C.
(§4) Stop solution: 40 μl 5% TCA in ACN
(§5) The compound numbers correspond to the compound numbers in Table 1. […] The term pIC50=−log(IC50). […] “NA” stands for “not assayed.”

[2] = molecular target: mPAD4 (Mus musculus, UniProt Q9Z183); assay: mPAD4 RFMS PAD4 inhibition assay; format: biochemical; details: mPAD4, RFMS readout;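 for mPAD4 RFMS pIC50: grade E means pIC50 at most 4 and F means pIC50 4.0 to 5.0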
Protocol: as §1, §2, §3, §4, §5

[3] = pIC50=−log(IC50), read-out: hPAD4 RFMS pIC50 (converted)
[4] = pIC50=−log(IC50), read-out: mPAD4 RFMS pIC50 (converted)

hPAD4, sequence (Q9UM07 whole entry): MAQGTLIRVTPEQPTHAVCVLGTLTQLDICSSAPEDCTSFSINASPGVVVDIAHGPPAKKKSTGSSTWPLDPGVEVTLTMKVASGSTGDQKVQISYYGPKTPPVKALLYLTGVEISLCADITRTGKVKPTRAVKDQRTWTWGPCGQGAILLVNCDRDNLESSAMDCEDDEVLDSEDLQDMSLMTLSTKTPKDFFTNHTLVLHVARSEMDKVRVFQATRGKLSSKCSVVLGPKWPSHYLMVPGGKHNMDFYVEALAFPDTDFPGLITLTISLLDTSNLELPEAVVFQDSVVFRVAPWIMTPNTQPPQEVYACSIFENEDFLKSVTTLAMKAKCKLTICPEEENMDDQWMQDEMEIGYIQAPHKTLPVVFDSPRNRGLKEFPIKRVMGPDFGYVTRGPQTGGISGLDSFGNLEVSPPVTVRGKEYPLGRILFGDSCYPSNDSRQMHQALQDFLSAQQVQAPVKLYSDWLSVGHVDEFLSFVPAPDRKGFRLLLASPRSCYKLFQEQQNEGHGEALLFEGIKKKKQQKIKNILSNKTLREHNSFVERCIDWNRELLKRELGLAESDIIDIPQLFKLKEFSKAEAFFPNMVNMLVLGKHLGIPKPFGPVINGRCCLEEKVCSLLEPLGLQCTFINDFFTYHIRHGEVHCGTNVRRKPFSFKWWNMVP
mPAD4, sequence (Q9Z183 whole entry): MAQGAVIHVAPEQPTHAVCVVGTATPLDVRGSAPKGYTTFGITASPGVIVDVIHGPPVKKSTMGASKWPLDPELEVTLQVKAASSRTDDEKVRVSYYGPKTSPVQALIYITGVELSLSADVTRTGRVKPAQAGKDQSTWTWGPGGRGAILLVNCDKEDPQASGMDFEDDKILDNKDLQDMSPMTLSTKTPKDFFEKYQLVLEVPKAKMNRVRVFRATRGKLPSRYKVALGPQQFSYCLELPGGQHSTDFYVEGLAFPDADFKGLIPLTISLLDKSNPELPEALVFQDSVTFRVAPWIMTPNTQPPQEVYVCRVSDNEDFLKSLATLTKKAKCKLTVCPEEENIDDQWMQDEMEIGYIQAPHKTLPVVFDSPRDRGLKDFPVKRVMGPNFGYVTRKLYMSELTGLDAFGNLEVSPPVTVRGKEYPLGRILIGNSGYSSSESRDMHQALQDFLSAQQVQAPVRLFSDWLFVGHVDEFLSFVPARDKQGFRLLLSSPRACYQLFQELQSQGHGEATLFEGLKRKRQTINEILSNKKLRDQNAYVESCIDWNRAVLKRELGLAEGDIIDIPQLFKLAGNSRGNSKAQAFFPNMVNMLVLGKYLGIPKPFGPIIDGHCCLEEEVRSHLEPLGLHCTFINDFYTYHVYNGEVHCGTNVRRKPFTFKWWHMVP

| SMILES | IC50 [1, 3] | IC50 ([1]; read-out: hPAD4 RFMS IC50) | IC50 [2, 4] | IC50 ([2]; read-out: mPAD4 RFMS IC50) | mPAD4 RFMS pIC50 ([2]; pIC50=−log(IC50)) |
| --- | --- | --- | --- | --- | --- |
| COc1cc(C(=O)N2CC3CCC2[C@@H]3N)cc2nc(-c3cc4cccnc4n3CC3CC3)n(C)c12 (stereo partly shown) [Compound I-30] | 10000 to 100000 nM | > 10000 nM | 10000 to 100000 nM | > 10000 nM | – |
| Cn1c(-c2cc3cccnc3n2CC2CC2)nc2cc(C(=O)N3CC[C@H]4CCN[C@H]4C3)cc(OC(F)F)c21 (single isomer, unassigned) [Compound I-25, hydrochloride] | 1000 to 10000 nM | 1000 to 5000 nM | 1000 to 10000 nM | 1000 to 5000 nM | – |
| COc1cc(C(=O)N2C[C@@H](N)CC[C@@H]2CO)cc2nc(-c3cc4cccnc4n3CC3CC3)n(C)c12 (single isomer, unassigned) [Compound I-227] | 10000 to 100000 nM | > 10000 nM | – | > 10000 nM | E/F |
| Cn1c(-c2cc3cccnc3n2CC2CC2)nc2cc(C(=O)N3CCC[C@@H](N)C3)cc(C(N)=O)c21 [Compound I-112, 5-[(3R)-3-aminopiperidine-1-carbonyl]-2-[1-(cyclopropylmethyl)-1H-pyrrolo[2,3-b]pyridin-2-yl]-1-methyl-1H-1,3-benzodiazole-7-carboxamide hydrochloride] | 1000 to 10000 nM | 5000 to 10000 nM | 1000 to 10000 nM | 1000 to 5000 nM | – |
| Cn1c(-c2cc3cccnc3n2CC2CC2)nc2cc(C(=O)N3CCCC4NCCC43)ccc21 (stereo not shown) [Compound I-52] | 10000 to 100000 nM | > 10000 nM | 10000 to 100000 nM | > 10000 nM | – |
| COc1cc(C(=O)N2CCC[C@@H](N)C2)cc2nc(-c3cc4cccnc4n3[C@H](C)C3CC3)n(C)c12 [Compound I-101, (3R)-1-(2-{1-[(1R)-1-cyclopropylethyl]-1H-pyrrolo[2,3-b]pyridin-2-yl}-7-methoxy-1-methyl-1H-1,3-benzodiazole-5-carbonyl)piperidin-3-amine] | 1000 to 10000 nM | 1000 to 5000 nM | 1000 to 10000 nM | 1000 to 5000 nM | – |

Results, then the molecule that gave them:

| IC50 [1, 3] | IC50 ([1]; read-out: hPAD4 RFMS IC50) | IC50 [2, 4] | IC50 ([2]; read-out: mPAD4 RFMS IC50) | mPAD4 RFMS pIC50 ([2]; pIC50=−log(IC50)) | SMILES |
| --- | --- | --- | --- | --- | --- |
| < 1000 nM | < 1000 nM | < 1000 nM | < 1000 nM | – | CCn1c(-c2nc3cc(C(=O)N4CCC[C@@H](N)C4)cc(OC)c3n2C)cc2ccc(C)nc21 [Compound I-161] |
| < 1000 nM | < 1000 nM | < 1000 nM | < 1000 nM | – | COc1cc(C(=O)N2C[C@H]3CC[C@@H]2[C@@H]3N)cc2nc(-c3cc4cccnc4n3CC3CC3)n(C[C@H]3CCOC3)c12 [Compound I-231] |
| < 1000 nM | < 1000 nM | < 1000 nM | < 1000 nM | – | COc1ccc2cc(-c3nc4cc(C(=O)N5CCC[C@@H](N)C5)cc(OC)c4n3CC(F)F)n(CC3CC3)c2n1 [Compound I-94, (3R)-1-{2-[1-(cyclopropylmethyl)-6-methoxy-1H-pyrrolo[2,3-b]pyridin-2-yl]-1-(2,2-difluoroethyl)-7-methoxy-1H-1,3-benzodiazole-5-carbonyl}piperidin-3-amine] |
| < 1000 nM | < 1000 nM | < 1000 nM | < 1000 nM | – | COc1cc(C(=O)N2C[C@H](N)C[C@@H](F)C2)cc2nc(-c3cc4ccc(C(F)(F)F)nc4n3CC3CC3)n(C)c12 [Compound I-208] |
| < 1000 nM | < 1000 nM | < 1000 nM | < 1000 nM | – | CCn1c(-c2nc3cc(C(=O)N4CCC[C@@H](N)C4)cc(OC)c3n2C)cc2ccc(OC(F)F)nc21 [Compound I-201] |
| < 1000 nM | < 1000 nM | < 1000 nM | < 1000 nM | – | COc1cc(C(=O)N2CC3CCC2C3N)cc2nc(-c3cc4cccnc4n3CC3CC3)n(C)c12 (stereo not shown) [Compound I-81] |
| < 1000 nM | < 1000 nM | < 1000 nM | < 1000 nM | – | CCn1c(-c2nc3cc(C(=O)N4CCC[C@@H](N)C4)cc(OC)c3n2C)cc2ccc(OC)nc21 [Compound I-135] |
